Data published in patent US8497237B2 (Signature Therapeutics, Inc., priority 2011, dated 2013).

Key:
[1] = Oral administration of Compound KC-7 co-dosed with trypsin inhibitor Compound 109 to rats (oxycodone in plasma); assay type: in vivo, rat; conditions: PO co-dosing, indicated by suppressed Cmax and/or delayed Tmax
[2] = Spacer leaving group cyclization rate (disappearance of compound in phosphate buffer); conditions: for half-life (compound disappearance, cyclization): 2.18 mM initial, 50 mM pH 7.4 phosphate buffer, 20° C.
[3] = Pharmacokinetics following PO administration to dogs (oxycodone in plasma)
trypsin = target: T1, trypsin (Bos taurus, UniProt P00760); test: In vitro trypsin-mediated prodrug cleavage; assay type: biochemical, bovine; conditions: bovine, trypsin from bovine pancreas; 0.761 mM prodrug, Tris pH 8, 37° C.; adjusted to 4815 BAEE U/mL trypsin
T1 construct: trypsin from bovine pancreas; purchased Sigma-Aldrich T8003; host or cells: bovine pancreas (tissue-derived)
T1 sequence (P00760 24-246): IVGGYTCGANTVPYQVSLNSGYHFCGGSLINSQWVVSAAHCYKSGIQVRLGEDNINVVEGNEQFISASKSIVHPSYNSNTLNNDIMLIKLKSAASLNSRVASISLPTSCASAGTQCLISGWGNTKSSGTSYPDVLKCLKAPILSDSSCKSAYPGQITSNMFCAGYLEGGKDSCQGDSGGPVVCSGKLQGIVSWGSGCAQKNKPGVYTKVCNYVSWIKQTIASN
Description: (§1) The reactions were conducted at 37° C. for 24 h.
(§2) Table 3 indicates the results of exposure of Compound KC-7 to trypsin. […] Table 3 also indicates the cyclization rates of the cyclizable spacer leaving group of Compound KC-23. The results are expressed as half-life of compound disappearance. Since Compound KC-23 is a diastereomer, two peaks (A and B) were analyzed; the peak area of peak B was greater than that of peak A.

[4] = target: T2, trypsin from bovine pancreas (Bos taurus, UniProt P00760); test: In vitro trypsin-mediated prodrug cleavage; assay type: biochemical
T2 construct: trypsin from bovine pancreas; purchased Sigma-Aldrich T8003; host or cells: bovine pancreas (tissue-derived)
T2 sequence (P00760 24-246): T1 sequence (P00760 24-246)
Description: as §1, §2

In the case of `N=C(N)c1ccc2cc(OC(=O)c3ccc(N=C(N)N)cc3)ccc2c1` [Compound 109, 6-carbamimidoylnaphthalen-2-yl 4-(diaminomethyleneamino) benzoate], the “effect of trypsin inhibitor on oxycodone release from Compound KC-7” value [1] is reported as “attenuate Compound KC-7's ability to release oxycodone in rats in a dose-dependent manner”.

For “[(S)-1-(oxycodone-6-enol-carbonyl-methyl-amino)-1-carbonyl-sarcosine]ethylamine [KC-23, peak B]”, the “half-life (compound disappearance, cyclization)” value [2] was 5.80 ± 0.08 h.

With “N-1-[2-(oxycodone-6-enol-carbonyl-methyl-amino)-ethylamine]-arginine-malonic acid [Compound KC-3]” the “AUC ± sd” value ([3]; oxycodone in dog plasma, AUC 0 to 24 h, PO […] (KC-7 4.88, KC-3 4.15, oxycodone 2 mg/kg), OxyContin one 20 mg tablet) was 65.6 ± 22 ng·h/mL and the “OC Cmax ± sd” value ([3]; oxycodone in dog plasma, PO […] (KC-7 4.88, KC-3 4.15, oxycodone 2 mg/kg), OxyContin one 20 mg tablet) was 10.2 ± 3.3 ng/mL.

In the case of “[(S)-1-(oxycodone-6-enol-carbonyl-methyl-amino)-1-carbonyl-sarcosine]ethylamine [KC-23, peak A]”, the “half-life (compound disappearance, cyclization)” value [2] is reported as 7.22 ± 0.03 h.

In the case of `COc1ccc2c3c1O[C@H]1C(OC(=O)N(C)[C@@H](CNC(=O)[C@H](CCCNC(=N)N)NC(=O)CNC(C)=O)C(=O)N(C)CC(=O)O)=CC[C@@]4(O)[C@@H](C2)N(C)CC[C@]314` [Compound KC-7, N-1-[(S)-2-(oxycodone-6-enol-carbonyl-methyl-amino)-2-carbonyl-sarcosine-ethylamine]-arginine-glycine-acetate], the half-life at 0.761 mM (trypsin) is reported as 0.196 ± 0.00031 h, the OC formation rate ([4]; 0.761 mM prodrug, Tris pH 8, 37° C.) is reported as 0.339 ± 0.032 μmol/h/BAEE U and the cleavage by trypsin ([4]; in vitro) is reported as “can be cleaved by trypsin”. The “plasma PK profile of oxycodone release compared to OxyContin tablets and oxycodone” value ([3]; dogs, PO) was “resembles that of OxyContin® tablets more than that of oxycodone”, the “release of oxycodone into dog plasma compared to Compound KC-3” value ([3]; dogs, PO) was “significantly enhanced release of oxycodone into dog plasma (higher Cmax and AUC) as well as a more rapid Tmax” and the “cyclization of the spacer leaving group” value ([2]; shown by the cyclization rate of Compound KC-23) was “can cyclize”.
